Tested on: 695427-040-R-J1-PDC complex spheroid viability
Experiment: Anticancer human tumor 695427-040-R-J1-PDC patient-derived colon adenocarcinoma cell line growth inhibition [POLQ]
Conditions: for IC50: curve of first compound; for viability, T/C: stronger effect = lower value
Method in brief: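 Patient-derived tumour cells were co-cultured with HUVEC and mesenchymal stem cells as multicellular spheroids at 37 °C. They were treated with POLQ inhibitors (novobiocin, ART-558, RP6685) alone or combined with other agents. Top concentrations were at or near clinical Cmax (otherwise 10 microM; SN-38 at 1 microM), decreasing in half-log steps.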

[1] = second compound 0.0316 µM, first compound 0.0316 µM
[2] = second compound 0.0316 µM, first compound 0.1 µM
[3] = second compound 0.1 µM, first compound 0.0316 µM
[4] = second compound 0.1 µM, first compound 0.1 µM
[5] = second compound 0.316 µM, first compound 0.0316 µM
[6] = second compound 0.316 µM, first compound 0.1 µM
[7] = second compound 1 µM, first compound 0.0316 µM
[8] = second compound 1 µM, first compound 0.1 µM
[9] = second compound 3.16 µM, first compound 0.0316 µM
[10] = second compound 3.16 µM, first compound 0.1 µM
[11] = second compound 10 µM, first compound 0.0316 µM
[12] = second compound 10 µM, first compound 0.1 µM
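Further: spheroids exposed to compounds for seven days.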
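Wherever viability, T/C is given: 100% = DMSO vehicle control viability.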

Cn1ncnc1[C@H]1c2n[nH]c(=O)c3cc(F)cc(c23)N[C@@H]1c1ccc(F)cc1 + COC1C(OC(N)=O)C(O)C(Oc2ccc3c(O)c(NC(=O)c4ccc(O)c(CC=C(C)C)c4)c(=O)oc3c2C)OC1(C)C
IC50 (second compound 0.0316 µM): > 0.1 µM
IC50 (second compound 0.1 µM): > 0.1 µM
IC50 (second compound 0.316 µM): > 0.1 µM
IC50 (second compound 1 µM): > 0.1 µM
IC50 (second compound 3.16 µM): > 0.1 µM
IC50 (second compound 10 µM): > 0.1 µM
viability, T/C (second compound 0.0316 µM, first compound 0.000316 µM): 92%
viability, T/C (second compound 0.0316 µM, first compound 0.001 µM): 96.6%
viability, T/C (second compound 0.0316 µM, first compound 0.00316 µM): 93.5%
viability, T/C (second compound 0.0316 µM, first compound 0.01 µM): 105%
viability, T/C [1]: 106%
viability, T/C [2]: 84.1%
viability, T/C (second compound 0.1 µM, first compound 0.000316 µM): 99.4%
viability, T/C (second compound 0.1 µM, first compound 0.001 µM): 93.3%
viability, T/C (second compound 0.1 µM, first compound 0.00316 µM): 107%
viability, T/C (second compound 0.1 µM, first compound 0.01 µM): 101%
viability, T/C [3]: 98.4%
viability, T/C [4]: 83.8%
viability, T/C (second compound 0.316 µM, first compound 0.000316 µM): 106%
viability, T/C (second compound 0.316 µM, first compound 0.001 µM): 101%
viability, T/C (second compound 0.316 µM, first compound 0.00316 µM): 98.4%
viability, T/C (second compound 0.316 µM, first compound 0.01 µM): 106%
viability, T/C [5]: 103%
viability, T/C [6]: 92.1%
viability, T/C (second compound 1 µM, first compound 0.000316 µM): 103%
viability, T/C (second compound 1 µM, first compound 0.001 µM): 101%
viability, T/C (second compound 1 µM, first compound 0.00316 µM): 96.3%
viability, T/C (second compound 1 µM, first compound 0.01 µM): 95.1%
viability, T/C [7]: 93.9%
viability, T/C [8]: 91%
viability, T/C (second compound 3.16 µM, first compound 0.000316 µM): 96.6%
viability, T/C (second compound 3.16 µM, first compound 0.001 µM): 90.9%
viability, T/C (second compound 3.16 µM, first compound 0.00316 µM): 90.9%
viability, T/C (second compound 3.16 µM, first compound 0.01 µM): 98.3%
viability, T/C [9]: 105%
viability, T/C [10]: 94.6%
viability, T/C (second compound 10 µM, first compound 0.000316 µM): 103%
viability, T/C (second compound 10 µM, first compound 0.001 µM): 99.6%
viability, T/C (second compound 10 µM, first compound 0.00316 µM): 99%
viability, T/C (second compound 10 µM, first compound 0.01 µM): 106%
viability, T/C [11]: 113%
viability, T/C [12]: 101%

COc1cc2cc(C(=O)CCC(=O)O)sc2cc1OC + COC1C(OC(N)=O)C(O)C(Oc2ccc3c(O)c(NC(=O)c4ccc(O)c(CC=C(C)C)c4)c(=O)oc3c2C)OC1(C)C
IC50 (second compound 0.0316 µM): > 10 µM
IC50 (second compound 0.1 µM): > 10 µM
IC50 (second compound 0.316 µM): > 10 µM
IC50 (second compound 1 µM): > 10 µM
IC50 (second compound 3.16 µM): > 10 µM
IC50 (second compound 10 µM): > 10 µM
viability, T/C [1]: 98.3%
viability, T/C [2]: 86.9%
viability, T/C (second compound 0.0316 µM, first compound 0.316 µM): 101%
viability, T/C (second compound 0.0316 µM, first compound 1 µM): 104%
viability, T/C (second compound 0.0316 µM, first compound 3.16 µM): 112%
viability, T/C (second compound 0.0316 µM, first compound 10 µM): 107%
viability, T/C [3]: 117%
viability, T/C [4]: 103%
viability, T/C (second compound 0.1 µM, first compound 0.316 µM): 106%
viability, T/C (second compound 0.1 µM, first compound 1 µM): 99.2%
viability, T/C (second compound 0.1 µM, first compound 3.16 µM): 109%
viability, T/C (second compound 0.1 µM, first compound 10 µM): 103%
viability, T/C [5]: 108%
viability, T/C [6]: 105%
viability, T/C (second compound 0.316 µM, first compound 0.316 µM): 99.8%
viability, T/C (second compound 0.316 µM, first compound 1 µM): 107%
viability, T/C (second compound 0.316 µM, first compound 3.16 µM): 101%
viability, T/C (second compound 0.316 µM, first compound 10 µM): 99.3%
viability, T/C [7]: 104%
viability, T/C [8]: 109%
viability, T/C (second compound 1 µM, first compound 0.316 µM): 100%
viability, T/C (second compound 1 µM, first compound 1 µM): 106%
viability, T/C (second compound 1 µM, first compound 3.16 µM): 101%
viability, T/C (second compound 1 µM, first compound 10 µM): 103%
viability, T/C [9]: 102%
viability, T/C [10]: 94.2%
viability, T/C (second compound 3.16 µM, first compound 0.316 µM): 97.4%
viability, T/C (second compound 3.16 µM, first compound 1 µM): 106%
viability, T/C (second compound 3.16 µM, first compound 3.16 µM): 103%
viability, T/C (second compound 3.16 µM, first compound 10 µM): 93.8%
viability, T/C [11]: 102%
viability, T/C [12]: 102%
viability, T/C (second compound 10 µM, first compound 0.316 µM): 114%
viability, T/C (second compound 10 µM, first compound 1 µM): 120%
viability, T/C (second compound 10 µM, first compound 3.16 µM): 104%
viability, T/C (second compound 10 µM, first compound 10 µM): 109%

Reference: PubChem BioAssay AID1963840 (Molecular Pharmacology Branch, DTP, NCI, 2024)
